{
  "source": "patent US9579358B2",
  "about": "“Compositions for binding to amyloid proteins” (LANCASTER UNIVERSITY BUSINESS ENTERPRISES LIMITED, priority 2011, dated 2017)",
  "key": {"[1]": {"tested_on": "SHSY-5Y neuroblastoma cells", "test": "LDH assay, protection against Aβ42-mediated toxicity", "assay_type": "cell-based", "settings": "5 μM Aβ42 plus 0.1-10 μM peptide, 24 h", "method": "For cell toxicity assays (Example 3), SHSY-5Y neuroblastoma cells were maintained in 10% Fetal Calf Serum supplemented Dulbecco's Modified Eagle Medium (DMEM, Gibco) under standard mammalian cell culture conditions. The cells were transferred to sterile 96-well growth plates at 20,000 cells/well and 4 wells per condition. To test for any toxic effects of RI-OR2-TAT alone on the cells, they were left to adhere for 24 h before the addition of the inhibitor (at 12.5, 25, 50, 100 and 200 μM), in DMEM. To look at the ability of RI-OR2-TAT to protect against Aβ toxicity, the cell growth medium was changed to Optimem (Invitrogen) and Aβ42, pre-aggregated (at 100 μM) for 24 h at 25° C. in PBS, was added to the cells at a concentration of 5 μM, together with various amounts (0, 0.1, 0.5, 1, 5 or 10 μM) of RI-OR2-TAT. In each case, after a further 24 h incubation period, the viability of the cells was assessed using a CytoTox 96® Non-Radioactive Cytotoxicity Assay (LDH) Assay (Promega) kit."}, "[2]": {"tested_on": "APP/PS1 transgenic mice", "test": "Brain pathology after 21 days of treatment", "assay_type": "in vivo", "settings": "100 nMol/kg i.p. once daily", "excerpt": "APPswe/PS1ΔE9 mice with a C57Bl/6 background (APP/PS1 mice) were obtained from the Jackson lab (http://research.iax.org/repository/alzheimers.html). To determine if Flu-RI-OR2-TAT crosses the blood brain barrier (Example 4), 2 male 17-months-old APP/PS1 animals and 2 16-months-old C57BL6 animals were used. To look at the effects of RI-OR2-TAT on mouse brain pathology (Example 5), 8 female 10-months-old APP/PS1 mice were used. The animals were housed in single cages in a temperature controlled holding room (21.5° C.±1) with 12:12 h light and dark cycle. Food and water was available ad libitum.\nFor Example 5, 4 animals were injected intraperitonially (i.p.) with 0.9% NaCl (vehicle control) and the other 4 with RI-OR2-TAT (100 nMol/Kg in 0.9% NaCl) once daily, for 21 days. On the 22nd day, the animals were perfused transcardially with ice-cold PBS and 4% paraformaldehyde and then the brains were removed and post-fixed in 4% ice cold paraformaldehyde.\nAll brains in paraformaldehyde were transferred to 30% sucrose overnight and then snap frozen with Envirofreez™ (Sigma, UK) and, using a Leica cryostat, 40 microns thick coronal sections were cut at anatomical regions of −2 to −3 bregma. Sections were preserved in cryoprotect with the first section taken at random and then every 5th section afterwards.\nFor Example 5, to stain for activated microglia, an inflammation response marker, sections were pretreated with 0.05 M sodium citrate buffer, pH 9, and incubated at 90° C. for 30 mins and stained with anti Iba-1 (1:2000 dilution, Wako 016-20001, Germany). For the oxidative stress marker, DNA denaturation was carried out with 2N HCl and the sections were stained for 8-oxo guanine (1:200 dilution, MAB3560, Millipore). Young immature neurons were detected by immunostaining for doublecortin (1:200 dilution, sc-66911, Santa Cruz Biotechnology). Total plaque load was quantified by immunostaining for β-amyloid (1:200 dilution, Invitrogen, 71-5800).\nAll sections were visualized using an Axio Scope 1 fluorescence microscope (Zeiss, Germany). For quantification, two images per section were taken from the cortex area with a 10× objective for 8-oxo guanine and β-amyloid staining, and a 100× objective for Iba1 staining, with a minimum of 5 sections visualized per animal. Image analysis was performed using multi threshold plug in Image J (NIH, USA).\nHuman oligomerised Aβ was measured using a kit purchased from Invitrogen, according to the manufacturer's instructions. Briefly, the right hemispheres from the brains of transgenic APP/PS1 mice treated with RI-OR2-TAT, or controls, were pooled separately and homogenized. Quantification of total protein was determined using the Bradford protein assay and was measured on a Nanophotometer (Implen, Germany). The homogenates were centrifuged at 100,000 g at 4° C. for 1 h. The supernatant was then diluted 1:10 before carrying out the sandwich ELISA, which measures soluble Aβ oligomer levels, but not amyloid monomers, as detailed in the manufacturer's protocol. The final AR oligomer values were determined following normalization of total protein levels."}},
  "note": "Non-standard residues stand in square brackets, D forms with d. Residues, ends and D or L forms follow the SMILES beside them.",
  "data": [
    {"smiles": "CC(=O)N[C@H](CCCNC(=N)N)C(=O)NCC(=O)N[C@H](Cc1ccccc1)C(=O)N[C@H](Cc1ccccc1)C(=O)N[C@@H](C(=O)N[C@H](CC(C)C)C(=O)N[C@H](CCCCN)C(=O)NCC(=O)N[C@H](CCCNC(=N)N)C(=O)N[C@H](CCCNC(=N)N)C(=O)N[C@H](CCCNC(=N)N)C(=O)N[C@H](CCCNC(=N)N)C(=O)N[C@H](CCC(N)=O)C(=O)N[C@H](CCCNC(=N)N)C(=O)N[C@H](CCCNC(=N)N)C(=O)N[C@H](CCCCN)C(=O)N[C@H](CCCCN)C(=O)N[C@H](CCCNC(=N)N)C(=O)NCC(=O)N[C@H](Cc1ccc(O)cc1)C(N)=O)C(C)C", "note": "[RI-OR2-TAT, Ac-rGffvlkGrrrrqrrkkrGy-NH2] (Ac-[dR]G[dF][dF][dV][dL][dK]G[dR][dR][dR][dR][dQ][dR][dR][dK][dK][dR]G[dY]-NH2)", "values": [
      {"measurement": "effect on Aβ42 toxicity to cells", "setting": "[1]", "value": "inhibits the toxic effects of Aβ42"},
      {"measurement": "increase of mean number of young doublecortin-expressing neurons in the dentate region", "setting": "[2]", "value": 210, "unit": "%"},
      {"measurement": "reduction of cortical level of 8-oxo-guanine immunostaining", "setting": "[2]", "value": 25, "unit": "%"},
      {"measurement": "reduction of number of activated microglia in the cortex", "setting": "[2]; Iba1 immunostaining", "value": 44, "unit": "%"},
      {"measurement": "reduction of soluble Aβ oligomer levels in the brain", "setting": "[2]; sandwich ELISA", "value": 25, "unit": "%"},
      {"measurement": "reduction of amyloid plaque load in the cortex", "setting": "[2]; versus saline, β-amyloid immunostaining", "value": 32, "unit": "%"}
    ]}
  ]
}
